Measurements published in US10294202B2, “Pyrrolidinones as herbicides” (FMC Corporation, priority 2013, dated 2019).

What was measured:
wild poinsettia = experiment: Test E preemergence herbicide test; format: in vivo, Euphorbia heterophylla; parameters: key: 0 = no effect, 100 = complete control
How it was run: (§1)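 Seeds were sown in silt loam soil and treated preemergence with test chemicals in a non-phytotoxic solvent mixture containing a surfactant. Plants were kept in a greenhouse for 21 days, then visually rated against untreated controls on a 0–100 scale (0 = no effect, 100 = complete control).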

surinam grass = experiment: Test E preemergence herbicide test; format: in vivo, Brachiaria decumbens; parameters: key: 0 = no effect, 100 = complete control
Description: Seeds of plant species selected from corn (Zea mays), soybean (Glycine max), velvetleaf (Abutilon theophrasti), lambsquarters (Chenopodium album), wild poinsettia (Euphorbia heterophylla), pigweed, palmer (palmer pigweed, Amaranthus palmeri), waterhemp (common waterhemp, Amaranthus rudis), surinam grass (Brachiaria decumbens), crabgrass, large (large crabgrass, Digitaria sanguinalis), crabgrass, Brazil (Brazilian crabgrass, Digitaria horizontalis), panicum, fall (fall panicum, Panicum dichotomiflorum), foxtail, giant (giant foxtail, Setaria faberii), foxtail, green (green foxtail, Setaria viridis), goosegrass (Eleusine indica), johnsongrass (Sorghum halepense), ragweed (common ragweed, Ambrosia elatior), barnyardgrass (Echinochloa crus-galli), sandbur (southern sandbur, Cenchrus echinatus), arrowleaf […] rhombifolia), ryegrass, Italian (Italian ryegrass, Lolium multiflorum), dayflower, VA (Virginia dayflower, Commelina virginica), field bindweed (Convolvulus arvensis), morningglory (Ipomoea coccinea), nightshade (eastern black nightshade, Solanum ptycanthum), kochia (Kochia scoparia), nutsedge, yellow (yellow nutsedge, Cyperus esculentus), cocklebur (common cocklebur, Xanthium strumarium), smartweed (ladysthumb smartweed, Polygonum Persicaria) and beggarticks (hairy beggarticks, Bidens pilosa), were planted into a silt loam soil and treated preemergence with test chemicals formulated in a non-phytotoxic solvent mixture which included a surfactant. Treated plants and controls were maintained in a greenhouse for 21 days, after which time all species were compared to controls and visually evaluated. Plant response ratings, summarized in Table E, are based on a scale of 0 to 100 where 0 is no effect and 100 is complete control. A dash (-) response means no test result.

crabgrass, Brazil = experiment: Test E preemergence herbicide test; format: in vivo, Digitaria horizontalis; parameters: key: 0 = no effect, 100 = complete control
How it was run: as §1

johnsongrass = experiment: Test E preemergence herbicide test; format: in vivo, Sorghum halepense; parameters: key: 0 = no effect, 100 = complete control
How it was run: as §1

monochoria = experiment: Test F flood (paddy) test; format: in vivo, Monochoria vaginalis; settings: 21 d, scale 0-100
How it was run: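 Visual injury ratings (0 no effect to 100 complete control) were taken 21 d after treatment against untreated controls. Compounds went directly into paddy water held 3 cm above soil, applied at the 2.0–2.5-leaf stage in sterilized Tama silt loam under a 30/27 °C, 16-h greenhouse regime.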

goosegrass = experiment: Test C pre-/postemergence herbicide test; format: in vivo, Eleusine indica
How it was run: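 Compound solutions contained surfactant in a non-phytotoxic solvent. These were sprayed onto pots of loam/sand sown with seeds, and onto young plants (2 to 18 cm, 1- to 4-leaf) in sphagnum peat–vermiculite mix. Visual injury scores (0 none, 100 complete control) were recorded after 13 to 15 days.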

[1] = Preemergence, 62 g ai/ha, scale 0 to 100
[2] = Preemergence, 125 g ai/ha, scale 0 to 100 (0 no effect, 100 complete control)
[3] = Preemergence, 31 g ai/ha, scale 0 to 100 (0 no effect, 100 complete control)

O=C1NC[C@H](c2cccc(C(F)(F)F)c2)[C@H]1C(=O)Nc1cccc(F)c1F [Compound 206]
Plant response rating, Poinsettia, Wild (wild poinsettia; 31 g ai/ha): 0 | Plant response rating, Poinsettia, Wild (wild poinsettia; 62 g ai/ha): 10 | Plant response rating, Poinsettia, Wild (wild poinsettia; 125 g ai/ha): 0 | Plant response rating, Poinsettia, Wild (wild poinsettia; 250 g ai/ha): 25 | Plant response rating, Surinam Grass (surinam grass; 31 g ai/ha): 50 | Plant response rating, Surinam Grass (surinam grass; 62 g ai/ha): 95 | Plant response rating, Surinam Grass (surinam grass; 125 g ai/ha): 85 | Plant response rating, Surinam Grass (surinam grass; 250 g ai/ha): 98 | Plant response rating, Crabgrass, Brazil (crabgrass, Brazil; 31 g ai/ha): 80 | Plant response rating, Crabgrass, Brazil (crabgrass, Brazil; 62 g ai/ha): 98 | Plant response rating, Crabgrass, Brazil (crabgrass, Brazil; 125 g ai/ha): 98 | Plant response rating, Crabgrass, Brazil (crabgrass, Brazil; 250 g ai/ha): 98 | Plant response rating, Johnsongrass (johnsongrass; 31 g ai/ha): 30 | Plant response rating, Johnsongrass (johnsongrass; 62 g ai/ha): 50 | Plant response rating, Johnsongrass (johnsongrass; 125 g ai/ha): 75 | Plant response rating, Johnsongrass (johnsongrass; 250 g ai/ha): 90 | Plant response rating, Monochoria (monochoria; 64 g ai/ha): 80 | Plant response rating, Monochoria (monochoria; 125 g ai/ha): 90 | Plant response rating, Monochoria (monochoria; 250 g ai/ha): 100 | Plant response rating, Monochoria (monochoria; 500 g ai/ha): 100

O=C1NC[C@H](c2cccc(C(F)(F)F)c2)[C@H]1C(=O)Nc1ccccc1F [Compound 204, (3R,4S)—N-(2-fluorophenyl)-2-oxo-4-[3-(trifluoromethyl)phenyl]-3-pyrrolidinecarboxamide]
Plant response rating, Poinsettia, Wild (wild poinsettia; 31 g ai/ha): 0 | Plant response rating, Poinsettia, Wild (wild poinsettia; 62 g ai/ha): 0 | Plant response rating, Poinsettia, Wild (wild poinsettia; 125 g ai/ha): 20 | Plant response rating, Poinsettia, Wild (wild poinsettia; 250 g ai/ha): 20 | Plant response rating, Surinam Grass (surinam grass; 31 g ai/ha): 35 | Plant response rating, Surinam Grass (surinam grass; 62 g ai/ha): 60 | Plant response rating, Surinam Grass (surinam grass; 125 g ai/ha): 98 | Plant response rating, Surinam Grass (surinam grass; 250 g ai/ha): 95 | Plant response rating, Crabgrass, Brazil (crabgrass, Brazil; 31 g ai/ha): 95 | Plant response rating, Crabgrass, Brazil (crabgrass, Brazil; 62 g ai/ha): 95 | Plant response rating, Crabgrass, Brazil (crabgrass, Brazil; 125 g ai/ha): 98 | Plant response rating, Crabgrass, Brazil (crabgrass, Brazil; 250 g ai/ha): 98 | Plant response rating, Johnsongrass (johnsongrass; 31 g ai/ha): 0 | Plant response rating, Johnsongrass (johnsongrass; 62 g ai/ha): 0 | Plant response rating, Johnsongrass (johnsongrass; 125 g ai/ha): 35 | Plant response rating, Johnsongrass (johnsongrass; 250 g ai/ha): 40 | Plant response rating, Monochoria (monochoria; 125 g ai/ha): 95 | Plant response rating, Monochoria (monochoria; 250 g ai/ha): 100 | Plant response rating, Monochoria (monochoria; 500 g ai/ha): 100

O=C1NCC(c2ccc(F)c(F)c2)C1C(=O)Nc1cccc(F)c1F (stereo not shown) [Compound 17, N-(2,3-difluorophenyl)-4-(3,4-difluorophenyl)-2-oxo-3-pyrrolidinecarboxamide]
Plant response rating, Goosegrass (goosegrass; Postemergence, 31 g ai/ha, scale 0 (no effect) to 100 (complete control)): 0 | Plant response rating, Goosegrass (goosegrass; Postemergence, 62 g ai/ha, scale 0 to 100 (0 no effect, 100 complete control)): 0 | Plant response rating, Goosegrass (goosegrass; Postemergence, 125 g ai/ha, scale 0 to 100 (0 no effect, 100 complete control)): 0 | Plant response rating, Goosegrass (goosegrass; Postemergence, 250 g ai/ha, scale 0 to 100 (0 no effect, 100 complete control)): 0 | Plant response rating, Goosegrass (goosegrass; [1]): 50 | Plant response rating, Goosegrass (goosegrass; [2]): 85 | Goosegrass plant response rating (goosegrass; [3]): 0 | Plant response rating, Poinsettia, Wild (wild poinsettia; 16 g ai/ha): 0 | Plant response rating, Poinsettia, Wild (wild poinsettia; 31 g ai/ha): 0 | Plant response rating, Poinsettia, Wild (wild poinsettia; 62 g ai/ha): 0 | Plant response rating, Poinsettia, Wild (wild poinsettia; 125 g ai/ha): 0 | Plant response rating, Poinsettia, Wild (wild poinsettia; 250 g ai/ha): 20 | Plant response rating, Surinam Grass (surinam grass; 16 g ai/ha): 0 | Plant response rating, Surinam Grass (surinam grass; 31 g ai/ha): 0 | Plant response rating, Surinam Grass (surinam grass; 62 g ai/ha): 50 | Plant response rating, Surinam Grass (surinam grass; 125 g ai/ha): 70 | Plant response rating, Surinam Grass (surinam grass; 250 g ai/ha): 75 | Plant response rating, Crabgrass, Brazil (crabgrass, Brazil; 16 g ai/ha): 40 | Plant response rating, Crabgrass, Brazil (crabgrass, Brazil; 31 g ai/ha): 65 | Plant response rating, Crabgrass, Brazil (crabgrass, Brazil; 62 g ai/ha): 95 | Plant response rating, Crabgrass, Brazil (crabgrass, Brazil; 125 g ai/ha): 95 | Plant response rating, Crabgrass, Brazil (crabgrass, Brazil; 250 g ai/ha): 98 | Plant response rating, Johnsongrass (johnsongrass; 16 g ai/ha): 0 | Plant response rating, Johnsongrass (johnsongrass; 31 g ai/ha): 0 | Plant response rating, Johnsongrass (johnsongrass; 62 g ai/ha): 0 | Plant response rating, Johnsongrass (johnsongrass; 125 g ai/ha): 0 | Plant response rating, Johnsongrass (johnsongrass; 250 g ai/ha): 0 | Plant response rating, Monochoria (monochoria; 125 g ai/ha): 90 | Plant response rating, Monochoria (monochoria; 250 g ai/ha): 90 | Plant response rating, Monochoria (monochoria; 500 g ai/ha): 95 | Plant response rating, Monochoria (monochoria; 1000 g ai/ha): 95 | Plant response rating, Monochoria (monochoria; 2000 g ai/ha): 95

O=C1NCC(c2ccc(Cl)c(Cl)c2)C1C(=O)Nc1ccccc1F (racemic) [Compound 14]
Plant response rating, Goosegrass (goosegrass; [1]): 0 | Plant response rating, Goosegrass (goosegrass; [2]): 0 | Goosegrass plant response rating (goosegrass; [3]): 0 | Plant response rating, Poinsettia, Wild (wild poinsettia; 16 g ai/ha): 0 | Plant response rating, Poinsettia, Wild (wild poinsettia; 31 g ai/ha): 0 | Plant response rating, Poinsettia, Wild (wild poinsettia; 62 g ai/ha): 15 | Plant response rating, Poinsettia, Wild (wild poinsettia; 125 g ai/ha): 20 | Plant response rating, Poinsettia, Wild (wild poinsettia; 250 g ai/ha): 25 | Plant response rating, Surinam Grass (surinam grass; 16 g ai/ha): 0 | Plant response rating, Surinam Grass (surinam grass; 31 g ai/ha): 0 | Plant response rating, Surinam Grass (surinam grass; 62 g ai/ha): 0 | Plant response rating, Surinam Grass (surinam grass; 125 g ai/ha): 20 | Plant response rating, Surinam Grass (surinam grass; 250 g ai/ha): 60 | Plant response rating, Crabgrass, Brazil (crabgrass, Brazil; 16 g ai/ha): 0 | Plant response rating, Crabgrass, Brazil (crabgrass, Brazil; 31 g ai/ha): 65 | Plant response rating, Crabgrass, Brazil (crabgrass, Brazil; 62 g ai/ha): 80 | Plant response rating, Crabgrass, Brazil (crabgrass, Brazil; 125 g ai/ha): 95 | Plant response rating, Crabgrass, Brazil (crabgrass, Brazil; 250 g ai/ha): 95 | Plant response rating, Johnsongrass (johnsongrass; 16 g ai/ha): 0 | Plant response rating, Johnsongrass (johnsongrass; 31 g ai/ha): 0 | Plant response rating, Johnsongrass (johnsongrass; 62 g ai/ha): 0 | Plant response rating, Johnsongrass (johnsongrass; 125 g ai/ha): 0 | Plant response rating, Johnsongrass (johnsongrass; 250 g ai/ha): 0
